Test results as given in ChEMBL document CHEMBL1127144, “Cyclopentenones as potential inhibitors of penicillin sensitive enzymes” (Bioorg Med Chem Lett, 1993).
Activity calls are given as the source filed them. The rule behind the calls is not given here.

What was measured:
[1] = system: Staphylococcus aureus; assay: Compound was evaluated for antibacterial activity against Staphylococcus aureus Oxford; Inactive; format: functional, organism-based
[2] = target: Beta-lactamase (Enterobacter cloacae) (UniProt P05364); assay: Compound was evaluated for the inhibitory activity against beta-lactamase of Enterobacter cloacae P99; Inactive
Sequence of Beta-lactamase (Enterobacter cloacae) (P05364 21-381 limits assumed): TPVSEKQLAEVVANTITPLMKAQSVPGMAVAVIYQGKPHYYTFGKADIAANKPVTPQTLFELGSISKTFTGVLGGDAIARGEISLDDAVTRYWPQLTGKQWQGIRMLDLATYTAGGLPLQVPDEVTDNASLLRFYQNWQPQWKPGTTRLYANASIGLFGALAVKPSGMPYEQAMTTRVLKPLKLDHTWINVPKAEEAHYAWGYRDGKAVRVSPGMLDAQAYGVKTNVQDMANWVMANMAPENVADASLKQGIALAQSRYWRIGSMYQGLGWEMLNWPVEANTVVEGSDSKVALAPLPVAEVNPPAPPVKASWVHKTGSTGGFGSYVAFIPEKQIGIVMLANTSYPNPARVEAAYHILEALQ

[3] = system: Bacillus subtilis; assay: Compound was evaluated for antibacterial activity against Bacillus subtilis ATCC 6633; Inactive; format: functional, organism-based
[4] = system: Streptococcus agalactiae; assay: Compound was evaluated for antibacterial activity against Streptococcus agalactiae Hester; Inactive; format: functional, organism-based
[5] = system: Enterococcus faecalis; assay: Compound was evaluated for antibacterial activity against […] I; Inactive; format: functional, organism-based
[6] = target: Beta-lactamase (Streptomyces albus G) (UniProt P14559); assay: Compound was evaluated for the inhibitory activity against beta-lactamase of Streptomyces albus G; Inactive
Sequence of Beta-lactamase (Streptomyces albus G) (P14559 whole entry, looked up): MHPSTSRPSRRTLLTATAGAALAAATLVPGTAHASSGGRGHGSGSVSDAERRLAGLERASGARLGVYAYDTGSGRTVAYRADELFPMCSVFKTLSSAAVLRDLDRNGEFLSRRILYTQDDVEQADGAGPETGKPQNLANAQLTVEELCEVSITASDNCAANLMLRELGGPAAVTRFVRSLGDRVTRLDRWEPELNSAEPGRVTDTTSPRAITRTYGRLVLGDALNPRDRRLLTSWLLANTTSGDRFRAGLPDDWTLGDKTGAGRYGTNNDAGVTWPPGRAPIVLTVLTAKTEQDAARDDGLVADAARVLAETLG

[7] = target: Beta-lactamase TEM (Escherichia coli) (UniProt P62593); assay: Compound was evaluated for the inhibitory activity against beta-lactamase of Escherichia coli (TEM-1); Inactive
Sequence of Beta-lactamase TEM (Escherichia coli) (P62593 whole entry): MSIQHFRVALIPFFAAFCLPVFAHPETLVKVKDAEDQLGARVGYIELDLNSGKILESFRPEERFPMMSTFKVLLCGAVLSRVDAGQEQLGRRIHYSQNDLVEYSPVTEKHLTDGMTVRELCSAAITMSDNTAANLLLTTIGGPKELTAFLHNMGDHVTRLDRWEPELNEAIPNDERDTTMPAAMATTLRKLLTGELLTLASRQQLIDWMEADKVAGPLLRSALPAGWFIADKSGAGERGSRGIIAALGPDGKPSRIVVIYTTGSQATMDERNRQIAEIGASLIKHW

[8] = system: Escherichia coli; assay: Compound was evaluated for antibacterial activity against Escherichia coli ESS; Inactive; format: functional, organism-based
[9] = system: Pseudomonas aeruginosa; assay: Compound was evaluated for antibacterial activity against Pseudomonas aeruginosa 447B-ES48; Inactive; format: functional, organism-based
[10] = system: Streptococcus pyogenes; assay: Compound was evaluated for antibacterial activity against Streptococcus pyogenes CN10; Inactive; format: functional, organism-based
[11] = target: T1, Beta-lactamase 1 (Bacillus cereus) (UniProt P00809); assay: Compound was evaluated for the inhibitory activity against beta-lactamase of Bacillus cereus; Inactive
T1 sequence (whole entry): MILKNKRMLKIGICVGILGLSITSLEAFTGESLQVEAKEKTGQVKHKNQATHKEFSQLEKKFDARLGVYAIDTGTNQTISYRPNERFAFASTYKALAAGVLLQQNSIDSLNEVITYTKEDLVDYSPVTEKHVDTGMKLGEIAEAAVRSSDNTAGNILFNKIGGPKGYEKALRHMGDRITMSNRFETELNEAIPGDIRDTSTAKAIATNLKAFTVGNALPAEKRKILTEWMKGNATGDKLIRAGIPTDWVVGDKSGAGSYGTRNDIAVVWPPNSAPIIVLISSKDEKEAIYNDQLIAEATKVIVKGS

[12] = system: Haemophilus influenzae; assay: Compound was evaluated for antibacterial activity against Haemophilus influenzae Q1; Inactive; format: functional, organism-based
[13] = system: Streptomyces; assay: Compound was evaluated for the inhibitory activity against D, D-carboxypeptidase of Streptomyces R39; Inactive
[14] = system: mycobacterium catarrhalis; assay: Compound was evaluated for antibacterial activity against Mycobacterium catarrhalis 1502; Inactive; format: functional
[15] = system: Streptococcus pneumoniae; assay: Compound was evaluated for antibacterial activity against Streptococcus pneumoniae 1761; Inactive; format: functional, organism-based

Activity [2] | Activity [6] | Activity [7] | Activity [11] | Activity [13] | SMILES | Activity [1] | Activity [3] | Activity [4] | Activity [5] | Activity [8] | Activity [9] | Activity [10] | Activity [12] | Activity [14] | Activity [15]
inactive | inactive | inactive | inactive | inactive | CO/N=C(/C(=O)NC1C=C(CC(=O)O)C(=O)C1)c1csc(N)n1 (stereo not given) | inactive | inactive | inactive | inactive | inactive | inactive | inactive | inactive | inactive | inactive
inactive | inactive | inactive | inactive | inactive | O=C(O)CC1=CC(NC(=O)Cc2ccccc2)CC1=O (stereo not given) | inactive | inactive | inactive | inactive | inactive | inactive | inactive | inactive | inactive | inactive
inactive | inactive | inactive | inactive | inactive | NC1C=C(CC(=O)O)C(=O)C1 (stereo not given) | inactive | inactive | inactive | inactive | inactive | inactive | inactive | inactive | inactive | inactive
